Assays:
E. coli NCTC 10418 = assay: Kill kinetics and regrowth of E. coli after gentamicin bolus pre-exposure followed by maintained cephazolin; assay type: cell-based, Escherichia coli; conditions: then cephazolin 0 mg/L
Description: In comparative experiments described in the examples herein, a reference strain of Escherichi coli (E. coli NCTC 10418) was exposed to constant concentrations of cephazolin in the culture medium (see FIGS. 1A and IIA).
The experimental work described herein involved testing bacterial response while changing aminoglycoside concentrations with time in the test tube, and mimics closely measurements made in man under clinical conditions (Bastone E B, Li S C, Ioannides-Demos L L, Spicer J., McLean A J, “Kill kinetics and regrowth patterns of E. coli exposed to gentamicin concentration-time profiles simulating in vivo bolus or infusion dosing”, Antimicrob Agents Chemother. 37:914-917, 1993).
The form of this profile is governed in vivo by distribution into tissue from the central circulation. In in vitro experiments, gentamicin was removed (T=0 time) by centrifugation and washing with antibiotic-free medium. The incubation was reconstituted with media containing 0 mg/l, 1 mg/l or 2 mg/l cephazolin (see FIG. IA).
In FIG. IB, it can be seen that the pattern of growth of control organisms (not exposed to antibiotic) is designated by the dotted line ( - - - ), while the growth patterns of test organisms are represented by the solid lines with symbols indicating each type of treatment or test (FIG. IB).

[1] = tested on: blood culture isolate of cMRSA; assay: MIC and MBC for the cMRSA isolate; assay type: cell-based, Staphylococcus aureus; conditions: mecA positive
Method: The student test was used for statistical analysis with a significant level of 0.05, it was performed using the Sigma Stat 32 program (SPSS Inc 1992-1997).

gentamicin
BACTERIAL COUNTS (E. coli NCTC 10418; 8 mg/L bolus gentamicin, 2 h): 1.32 ± 0.69 log10 cfu/mL | BACTERIAL COUNTS (E. coli NCTC 10418; 8 mg/L bolus gentamicin, 8 h): 4.91 ± 0.70 log10 cfu/mL | BACTERIAL COUNTS (E. coli NCTC 10418; 8 mg/L bolus gentamicin, 24 h): 8.88 ± 0.11 log10 cfu/mL | BACTERIAL COUNTS (E. coli NCTC 10418; 8 mg/L bolus gentamicin, −0.5 h): 5.87 ± 0.35 log10 cfu/mL | BACTERIAL COUNTS (E. coli NCTC 10418; 12 mg/L bolus gentamicin, 2 h): 0.69 ± 0.87 log10 cfu/mL | BACTERIAL COUNTS (E. coli NCTC 10418; 12 mg/L bolus gentamicin, 8 h): 4.54 ± 1.15 log10 cfu/mL | BACTERIAL COUNTS (E. coli NCTC 10418; 12 mg/L bolus gentamicin, 24 h): 8.80 ± 0.05 log10 cfu/mL | BACTERIAL COUNTS (E. coli NCTC 10418; 12 mg/L bolus gentamicin, −0.5 h): 6.10 ± 0.26 log10 cfu/mL | BACTERIAL COUNTS (E. coli NCTC 10418; 16 mg/L bolus gentamicin, 2 h): 0.48 ± 0.76 log10 cfu/mL | BACTERIAL COUNTS (E. coli NCTC 10418; 16 mg/L bolus gentamicin, 8 h): 3.85 ± 1.24 log10 cfu/mL | BACTERIAL COUNTS (E. coli NCTC 10418; 16 mg/L bolus gentamicin, 24 h): 8.79 ± 0.05 log10 cfu/mL | BACTERIAL COUNTS (E. coli NCTC 10418; 16 mg/L bolus gentamicin, −0.5 h): 5.85 ± 0.050 log10 cfu/mL | BACTERIAL COUNTS (E. coli NCTC 10418; 20 mg/L bolus gentamicin, 2 h): NGD | BACTERIAL COUNTS (E. coli NCTC 10418; 20 mg/L bolus gentamicin, 8 h): 3.15 ± 0.734 log10 cfu/mL | BACTERIAL COUNTS (E. coli NCTC 10418; 20 mg/L bolus gentamicin, 24 h): 8.81 ± 0.04 log10 cfu/mL | BACTERIAL COUNTS (E. coli NCTC 10418; 20 mg/L bolus gentamicin, −0.5 h): 5.89 ± 0.03 log10 cfu/mL | MBC [1]: 4 µg/mL | MIC [1]: 1 µg/mL

Source: patent US6858589B2, “Methods of and compositions for potentiating the action of agents active on cell wall sites of the susceptible bacteria” (priority 1996, dated 2005)
